Data published in US11066396B2 (priority 2016, dated 2021).

Experiments:
HDAC5 = HDAC5 (Homo sapiens (Human), UniProt Q9UQL6); settings: read-out: HDAC5 IC50
HDAC8 = HDAC8 (Homo sapiens (Human), UniProt Q9BY41); settings: read-out: HDAC8 IC50
HDAC1 = HDAC1 (Homo sapiens (Human), UniProt Q13547); settings: read-out: HDAC1 IC50
Chain of HDAC1 (Q13547 whole entry): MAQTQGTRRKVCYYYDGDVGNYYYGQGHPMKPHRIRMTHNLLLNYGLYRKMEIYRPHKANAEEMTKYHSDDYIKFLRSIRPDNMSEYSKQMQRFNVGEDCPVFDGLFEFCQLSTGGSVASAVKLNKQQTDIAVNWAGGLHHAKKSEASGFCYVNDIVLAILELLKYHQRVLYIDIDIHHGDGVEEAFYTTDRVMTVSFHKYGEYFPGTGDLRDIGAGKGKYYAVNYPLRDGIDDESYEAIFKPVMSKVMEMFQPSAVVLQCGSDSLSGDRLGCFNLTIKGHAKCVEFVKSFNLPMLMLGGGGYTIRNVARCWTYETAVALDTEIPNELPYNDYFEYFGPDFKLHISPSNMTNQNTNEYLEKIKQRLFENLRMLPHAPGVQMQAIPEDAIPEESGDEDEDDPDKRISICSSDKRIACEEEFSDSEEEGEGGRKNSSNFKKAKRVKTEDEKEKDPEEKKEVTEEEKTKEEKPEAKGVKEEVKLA

Chain of HDAC5 (Q9UQL6 656-1122): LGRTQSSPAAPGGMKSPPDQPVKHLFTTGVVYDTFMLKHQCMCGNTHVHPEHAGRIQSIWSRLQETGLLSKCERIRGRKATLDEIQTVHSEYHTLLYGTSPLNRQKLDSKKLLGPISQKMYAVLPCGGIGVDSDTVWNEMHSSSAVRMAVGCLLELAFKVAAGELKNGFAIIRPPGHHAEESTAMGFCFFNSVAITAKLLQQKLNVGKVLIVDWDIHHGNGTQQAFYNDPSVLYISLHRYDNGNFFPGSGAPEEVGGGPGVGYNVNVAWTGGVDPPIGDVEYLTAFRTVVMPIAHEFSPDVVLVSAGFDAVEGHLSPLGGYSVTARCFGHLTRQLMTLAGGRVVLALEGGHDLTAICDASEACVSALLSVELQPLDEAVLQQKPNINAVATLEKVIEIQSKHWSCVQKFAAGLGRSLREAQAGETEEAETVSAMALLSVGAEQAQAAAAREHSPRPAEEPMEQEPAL
Chain of HDAC8 (Q9BY41 whole entry): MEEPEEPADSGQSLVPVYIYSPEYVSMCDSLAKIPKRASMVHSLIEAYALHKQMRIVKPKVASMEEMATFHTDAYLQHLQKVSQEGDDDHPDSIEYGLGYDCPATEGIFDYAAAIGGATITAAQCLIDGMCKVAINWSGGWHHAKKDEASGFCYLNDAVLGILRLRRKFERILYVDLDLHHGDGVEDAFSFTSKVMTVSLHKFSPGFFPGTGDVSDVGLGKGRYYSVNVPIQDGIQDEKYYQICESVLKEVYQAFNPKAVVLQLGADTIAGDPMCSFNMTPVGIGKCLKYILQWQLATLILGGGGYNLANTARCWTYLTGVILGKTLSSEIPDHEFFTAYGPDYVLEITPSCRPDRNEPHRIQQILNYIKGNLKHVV

SMILES	IC50 (HDAC5)	IC50 (HDAC8)	IC50 (HDAC1)
FC(F)(F)c1nc(-c2ccc(N3CCOCC3c3cccnc3)nc2)no1 (stereo not drawn) [Example 133, 3-(pyridin-3-yl)-4-(5-(5-(trifluoromethyl)-1,2,4-oxadiazol-3-yl)pyridin-2-yl)morpholine]	31 nM	350 nM	160 nM
O=C1CCCC(c2ccccc2)N1c1ccc(-c2noc(C(F)(F)F)n2)cc1 (stereo not drawn) [Example 40, 6-phenyl-1-(4-(5-(trifluoromethyl)-1,2,4-oxadiazol-3-yl)phenyl)piperidin-2-one]	34 nM	800 nM	410 nM
O=C1CCC(c2ccccc2)N1c1ccc(-c2noc(C(F)(F)F)n2)cc1F (stereo not drawn) [Example 42, 1-(2-fluoro-4-(5-(trifluoromethyl)-1,2,4-oxadiazol-3-yl)phenyl)-5-phenylpyrrolidin-2-one]	27 nM	1400 nM	530 nM
O=C(C1CCS(=O)(=O)CC1)N(Cc1ccc(-c2noc(C(F)(F)F)n2)cn1)c1cccc(C(F)(F)F)c1 [Example 456, N-({5-[5-(trifluoromethyl)-1,2,4-oxadiazol-3-yl]pyridin-2-yl}methyl)-N-[3-(trifluoromethyl)phenyl]tetrahydro-2H-thiopyran-4-carboxamide 1,1-dioxide]	2700 nM	2500 nM	360 nM
Cc1cc(OCc2ccc(-c3noc(C(F)(F)F)n3)c(F)c2)cc(C)n1 [Example 237, 4-({3-fluoro-4-[5-(trifluoromethyl)-1,2,4-oxadiazol-3-yl]phenyl}methoxy)-2,6-dimethylpyridine]	230 nM	5300 nM	1800 nM
FC(F)(F)c1nc(-c2ccc(N3CCOCC3c3ccccc3Cl)nc2)no1 (stereo not drawn) [Example 130, 3-(2-chlorophenyl)-4-(5-(5-(trifluoromethyl)-1,2,4-oxadiazol-3-yl)pyridin-2-yl)morpholine]	74 nM	1500 nM	480 nM
O=C1COC[C@@H](c2ccccc2)N1c1cc(F)c(-c2noc(C(F)(F)F)n2)cc1F [Example 160, (R)-4-(2,5-difluoro-4-(5-(trifluoromethyl)-1,2,4-oxadiazol-3-yl)phenyl)-5-phenylmorpholin-3-one]	3 nM	12000 nM	1300 nM
FC(F)(F)c1nc(-c2ccnc(OCc3nc4ccccc4[nH]3)c2)no1 [Example 200, 2-[({4-[5-(trifluoromethyl)-1,2,4-oxadiazol-3-yl]pyridin-2-yl}oxy)methyl]-1H-benzimidazole]	460 nM	970 nM	450 nM
FC(F)(F)c1nc(-c2ccnc(OCCc3cccc4cn[nH]c34)c2)no1 [Example 167]	900 nM	480 nM	2500 nM
Fc1cc(COc2ccccc2)ccc1-c1noc(C(F)(F)F)n1 [Example 172, 3-(2-Fluoro-4-(phenoxymethyl)phenyl)-5-(trifluoromethyl)-1,2,4-oxadiazole]	760 nM	45000 nM	45000 nM
Cn1nccc1OCc1ccc(-c2noc(C(F)(F)F)n2)c(F)c1 [Example 229, 3-(2-fluoro-4-{[(1-methyl-1H-pyrazol-5-yl)oxy]methyl}phenyl)-5-(trifluoromethyl)-1,2,4-oxadiazole]	140 nM	4800 nM	3700 nM
O=C(COc1cc(-c2noc(C(F)(F)F)n2)ccn1)N1CCOCC1 [Example 190, 1-Morpholino-2-((4-(5-(trifluoromethyl)-1,2,4-oxadiazol-3-yl)pyridin-2-yl)oxy)ethan-1-one]	550 nM	1100 nM	2200 nM
O=C1COc2ccccc2N1Cc1ccc(-c2noc(C(F)(F)F)n2)cn1 [Example 462, 4-({5-[5-(trifluoromethyl)-1,2,4-oxadiazol-3-yl]pyridin-2-yl}methyl)-2H-1,4-benzoxazin-3(4H)-one]	9.6 nM	2400 nM	150 nM
COc1ncccc1OCc1ccc(-c2noc(C(F)(F)F)n2)c(F)c1 [Example 246, 3-({3-fluoro-4-[5-(trifluoromethyl)-1,2,4-oxadiazol-3-yl]phenyl}methoxy)-2-methoxypyridine]	120 nM	45000 nM	2400 nM
O=C(CN1CCOCC1)NC(Cc1ccc(-c2noc(C(F)(F)F)n2)cn1)c1cccc(C(F)(F)F)c1 (racemic) [Example 485, 2-(morpholin-4-yl)-N-(2-{5-[5-(trifluoromethyl)-1,2,4-oxadiazol-3-yl]pyridin-2-yl}-1-[3-(trifluoromethyl)phenyl]ethyl)acetamide]	1100 nM	11000 nM	1100 nM
COc1cnnc(OCc2ccc(-c3noc(C(F)(F)F)n3)c(F)c2)c1 [Example 239, 3-({3-fluoro-4-[5-(trifluoromethyl)-1,2,4-oxadiazol-3-yl]phenyl}methoxy)-5-methoxypyridazine]	190 nM	2400 nM	5900 nM

SMILES	IC50 (HDAC5)	IC50 (HDAC8)	IC50 (HDAC1)
O=C(C1CCS(=O)(=O)CC1)N(Cc1ccc(-c2noc(C(F)(F)F)n2)nn1)c1cccc(C(F)(F)F)c1 [Example 173, N-((6-(5-(Trifluoromethyl)-1,2,4-oxadiazol-3-yl)pyridazin-3-yl)methyl)-N′-(3-(trifluoromethyl)phenyl)tetrahydro-2H-thiopyran-4-carboxamide 1,1-dioxide]	8300 nM	6300 nM	1100 nM
Cc1ccc(NCc2ccc(-c3noc(C(F)(F)F)n3)c(F)c2)cn1 [Example 253, N-({3-fluoro-4-[5-(trifluoromethyl)-1,2,4-oxadiazol-3-yl]phenyl}methyl)-6-methylpyridin-3-amine]	64 nM	3900 nM	1700 nM
Fc1cc(COc2[nH]nc3c2COCC3)ccc1-c1noc(C(F)(F)F)n1 [Example 249, 3-({3-fluoro-4-[5-(trifluoromethyl)-1,2,4-oxadiazol-3-yl]phenyl}methoxy)-2,4,6,7-tetrahydropyrano[4,3-c]pyrazole]	74 nM	2300 nM	3100 nM
CC1(C(=O)NC(Cc2ccc(-c3noc(C(F)(F)F)n3)cn2)c2cccc(C(F)(F)F)c2)COC1 (racemic) [Example 482, 3-methyl-N-(2-{5-[5-(trifluoromethyl)-1,2,4-oxadiazol-3-yl]pyridin-2-yl}-1-[3-(trifluoromethyl)phenyl]ethyl)oxetane-3-carboxamide]	480 nM	8500 nM	790 nM
CN(C(=O)[C@@H]1COCC(=O)N1c1ccc(-c2noc(C(F)(F)F)n2)c(F)c1)C(C)(C)C [Example 196, (3S)-N-tert-butyl-4-{3-fluoro-4-[5-(trifluoromethyl)-1,2,4-oxadiazol-3-yl]phenyl}-N-methyl-5-oxomorpholine-3-carboxamide]	300 nM	6300 nM	6900 nM
Cc1noc([C@@H]2CCC(=O)N2c2ccc(-c3noc(C(F)(F)F)n3)cc2)n1 [Example 122, (S)-5-(3-methyl-1,2,4-oxadiazol-5-yl)-1-(4-(5-(trifluoromethyl)-1,2,4-oxadiazol-3-yl)phenyl)pyrrolidin-2-one]	21 nM	1400 nM	730 nM
CC(Oc1nccc(-c2noc(C(F)(F)F)n2)c1Cl)c1cccnc1 (racemic) [Example 256, 3-chloro-2-[1-(pyridin-3-yl)ethoxy]-4-[5-(trifluoromethyl)-1,2,4-oxadiazol-3-yl]pyridine]	200 nM	2300 nM	3300 nM
O=C1CNCC(c2ccccc2)N1c1ccc(-c2noc(C(F)(F)F)n2)cc1 (stereo not drawn) [Example 39, 6-phenyl-1-(4-(5-(trifluoromethyl)-1,2,4-oxadiazol-3-yl)phenyl)piperazin-2-one]	25 nM	1600 nM	550 nM
O=C(NC(Cc1ccc(-c2noc(C(F)(F)F)n2)cn1)c1cccc(C(F)(F)F)c1)C(F)(F)F (stereo not drawn) [Example 176, 2,2,2-Trifluoro-N-(2-(5-(5-(trifluoromethyl)-1,2,4-oxadiazol-3-yl)pyridin-2-yl)-1-(3-(trifluoromethyl)phenyl)ethyl)acetamide]	320 nM	45000 nM	1300 nM
CNC(=O)OCc1ccc(-c2noc(C(F)(F)F)n2)cn1 [Example 194, {5-[5-(trifluoromethyl)-1,2,4-oxadiazol-3-yl]pyridin-2-yl}methyl methylcarbamate]	610 nM	1300 nM	1700 nM
Fc1cc(COc2ccc3cnccc3n2)ccc1-c1noc(C(F)(F)F)n1 [Example 234, 2-({3-fluoro-4-[5-(trifluoromethyl)-1,2,4-oxadiazol-3-yl]phenyl}methoxy)-1,6-naphthyridine]	8.4 nM	640 nM	370 nM
Cn1cccc(OCc2ccc(-c3noc(C(F)(F)F)n3)c(F)c2)c1=O [Example 233, 3-({3-fluoro-4-[5-(trifluoromethyl)-1,2,4-oxadiazol-3-yl]phenyl}methoxy)-1-methylpyridin-2(1H)-one]	170 nM	2200 nM	1600 nM
Fc1ccccc1OCc1ccc(-c2noc(C(F)(F)F)n2)cn1 [Example 251, 2-[(2-fluorophenoxy)methyl]-5-[5-(trifluoromethyl)-1,2,4-oxadiazol-3-yl]pyridine]	190 nM	3500 nM	1200 nM
O=C(NCc1ccc(-c2noc(C(F)(F)F)n2)cc1)C1CCCC1 [Example 191, N-(4-(5-(Trifluoromethyl)-1,2,4-oxadiazol-3-yl)benzyl)cyclopentanecarboxamide]	940 nM	2900 nM	2200 nM
CC(C)(C)OC(=O)[C@@H]1COCC(=O)N1c1ccc(-c2noc(C(F)(F)F)n2)c(F)c1 [Example 471, tert-butyl (3S)-4-{3-fluoro-4-[5-(trifluoromethyl)-1,2,4-oxadiazol-3-yl]phenyl}-5-oxomorpholine-3-carboxylate]	54 nM	3800 nM	870 nM
